In patent publication US8680065B2, “Oligonucleotides of human endogenous retrovirus 9 (ERV-9) long terminal repeat (LTR) and methods of use” (The United States of America, as represented by the …, priority 2008, dated 2014):

Assays:
[1] = test system: MDA-231 cells; experiment: Cancer cell proliferation, oligonucleotide in combination with VP16, 48 hours; type: cell-based, human; conditions: oligonucleotide 15 μg/ml with VP16 30 ng/ml and 50 ng/ml, P<0.05
[2] = test system: MDA-231 cells (a breast cancer cell line); experiment: Cancer cell proliferation, oligonucleotide in LIPOFECTAMINE, 48 hours, direct cell counting; type: cell-based, human; conditions: oligonucleotide 10, 20 or 30 μg/ml, P<0.05
[3] = test system: HT1080 cells; experiment: Cancer cell proliferation, U3 and U5 oligonucleotides, 72 hours; type: cell-based, human; conditions: 20 μg/ml
Method: FIG. 16 is a graph showing the effect of sense and antisense ERV-9 U3 (SEQ ID NOs: 1, 2, 7, 8, 9, and 10) and U5 (SEQ ID NOs: 11 and 12) oligonucleotides on proliferation of HT1080 cells. Cells (4×10^4) were treated with oligonucleotide formulated in LIPOFECTAMINE™ at a concentration of 20 μg/ml for 72 hours. GFP sense oligonucleotide was used as a control to measure the non-specific cytotoxicity of phosphorothioate-based oligonucleotides. Antisense oligonucleotides G3139, GRN163, and MDM2 were also evaluated. Cell proliferation levels were expressed relative to cells transfected with GFP oligonucleotide. All U3 and U5 sense and antisense oligonucleotides inhibited cell proliferation to a greater extent that GFP control. In addition, with the exception of the U5 sense oligonucleotide, all U3 and U5 oligonucleotides inhibited cell proliferation better than the G3139, GRN163 and MDM2 antisense oligonucleotides.
(§1) HT1080 or MDA-231 cells (4×10^4 cells) were treated with ERV-9 LTR (U3 or U5) sense or antisense oligonucleotides formulated in LIPOFECTAMINE™ at a concentration of 20 μg/ml for 72 hours. GFP sense oligonucleotide was used as a control to measure the non-specific cytotoxicity of phosphorothioates-based oligonucleotides. Relative cell proliferation levels were expressed as percentage of GFP oligonucleotide transfected control. The results are shown in FIG. 16 (HT1080 cells) and FIG. 17 (MDA-231 cells).

[4] = test system: LNcaP cells; experiment: Cancer cell proliferation, oligonucleotide in combination with VP16, 48 hours; type: cell-based, human; conditions: oligonucleotide 15 μg/ml with VP16 30 ng/ml and 50 ng/ml
Method: FIG. 10 is a graph showing proliferation of LNcaP cells treated with ERV-9 U3 sense or antisense oligonucleotide (SEQ ID NOs: 1 and 2, respectively), in combination with VP16. Cells (4×10^4) were treated with oligonucleotide (15 μg/ml) alone or in combination with the concentrations of VP16 shown for 48 hours.
To test the effect of treating cancer cells with the combination of ERV-9 U3 oligonucleotide and VP16, six different cancer cell lines were analyzed: HT1080, (FIG. 7); MDA-231 (FIG. 8); K562 (FIG. 9); LNcaP (FIG. 10); HepG2 (FIG. 11); and MCF-7 (FIG. 12). Cells (4×10^4) were treated with 15 μg/ml ERV-9 U3 sense (SEQ ID NO: 1) or antisense (SEQ ID NO: 2) oligonucleotide alone or in combination with VP16 at a concentration of 30 ng/ml or 50 ng/ml. After 48 hours, cell proliferation was assessed by direct cell counting. Cell proliferation levels were expressed relative to GFP oligonucleotide control in the absence of VP16.

[5] = test system: LNcaP cells (a prostate cancer cell line); experiment: Cancer cell proliferation, oligonucleotide in LIPOFECTAMINE, 48 hours, direct cell counting; type: cell-based, human; conditions: oligonucleotide 10, 20 or 30 μg/ml
[6] = test system: MDA-231 cells; experiment: Cancer cell proliferation, U3 and U5 oligonucleotides, 72 hours; type: cell-based, human; conditions: 20 μg/ml
Method: FIG. 17 is a graph showing the effect of sense and antisense ERV-9 U3 and (SEQ ID NOs: 1, 2, 7, 8, 9, and 10) and U5 (SEQ ID NOs: 11 and 12) oligonucleotides on proliferation of MDA-231 cells. Cells (4×10^4) were treated with oligonucleotide formulated in LIPOFECTAMINE™ at a concentration of 20 μg/ml for 72 hours. GFP sense oligonucleotide and G3139, GRN163 and MDM2 antisense oligonucleotides were included as controls. Cell proliferation levels were expressed relative to cells transfected with GFP oligonucleotide. All U3 and U5 sense and antisense oligonucleotides inhibited cell proliferation better than GFP control and the G3139, GRN163 and MDM2 antisense oligonucleotides.
as §1

[7] = test system: tumor; conditions: U.S. Pat. Nos. 7,256,284 and 6,946,447; Ozawa et al. 2004; cited from earlier work
[8] = test system: MDA-231 cells; experiment: Tumor cell proliferation, siRNA in LIPOFECTAMINE, 72 hours; type: cell-based, human; conditions: siRNA 100 nM
Method: (§2) FIG. 20 is a pair of graphs showing the effect of ERV-9 LTR U3 region siRNA (SEQ ID NOs: 13 and 14), alone or in combination with VP16, on proliferation of MDA-231 (top) and MCF-7 (bottom) cells. 4×10^4 cells were treated with siRNAs formulated in LIPOFECTAMINE™ at 100 nM for 72 hours. RRM2 is a combination of three siRNAs (SEQ ID NOs: 15, 16, and 17) against ribonucleotide reductase subunit M2. Relative cell proliferation levels were expressed as percentage of non-treated control.
(§3) 4×10^4 cells were treated with siRNAs formulated in LIPOFECTAMINE™ at 100 nM for 72 hours. […] For RRM2, a combination of the 3 siRNAs was used at final concentration of 100 nM. Relative cell proliferation levels were expressed as percentage of non-treated control. Student's t-test was used for statistics.

[9] = test system: MCF-7 cells; experiment: as above; type: cell-based, human; conditions: siRNA 100 nM
Method: as §2, §3

Row | Substance | cell proliferation relative to GFP oligonucleotide control [1] | cell proliferation relative to GFP oligonucleotide [2] | cell proliferation relative to GFP oligonucleotide transfected control [3] | cell proliferation relative to GFP oligonucleotide control [4] | cell proliferation relative to GFP oligonucleotide [5] | cell proliferation relative to GFP oligonucleotide transfected control [6] | tumor growth in animal models [7] | other results
1 | G3139: antisense oligonucleotide specific for Bcl-2, TCTCCCAGCGTGCGCCAT (listed as DNA, chemistry not given here) [Oligo G3139] | inhibited cell proliferation only at a VP16 concentration of 50 ng/ml | inhibited cell proliferation only at oligonucleotide concentrations of 20 μg/ml and 30 μg/ml | inhibited cell proliferation better than the GFP oligonucleotide control | did not inhibit cell proliferation at any VP16 concentration tested | did not significantly inhibit cell proliferation at any of the three concentration levels | inhibited cell proliferation better than the GFP control oligonucleotide | has been previously shown to inhibit tumor growth in animal models | 
2 | U3AS5: ERV-9 U3 antisense oligonucleotide CCGACCGGTTCCGGTCTCGGCCGAGG, target nt 2792-2817 (AF064190) (listed as DNA, chemistry not given here) [Oligo U3AS5] |  |  | inhibited cell proliferation better than G3139, GRN163 and MDM2 oligonucleotides |  |  |  |  | 
3 | U3S4: ERV-9 U3 sense oligonucleotide CCGAGCCTCGCCGACGAGCGCCGC, target nt 3096-3119 (AF064190) (listed as DNA, chemistry not given here) [Oligo U3S4] |  |  | inhibited cell proliferation better than G3139, GRN163 and MDM2 oligonucleotides |  |  |  |  | 
4 | MDM2 antisense oligonucleotide: antisense oligonucleotide specific for MDM2, TGACACCTGTTCTCACTCAC (listed as DNA, chemistry not given here) | inhibited cell proliferation only at a VP16 concentration of 50 ng/ml | inhibited cell proliferation only at concentrations of 10 μg/ml and 20 μg/ml | inhibited cell proliferation better than the GFP oligonucleotide control | inhibited cell proliferation better than GFP control only at a VP16 concentration of 30 ng/ml | inhibited cell proliferation only at a concentration of 10 μg/ml | inhibited cell proliferation better than the GFP control oligonucleotide | has been previously shown to inhibit tumor growth in animal models | 
5 | U5AS: ERV-9 U5 antisense oligonucleotide GTTCTGATGTTTGGATGTGTTC, target nt 819-840 (AF064191) (listed as DNA, chemistry not given here) [Oligo U5AS] |  |  | inhibited cell proliferation better than G3139, GRN163 and MDM2 oligonucleotides |  |  |  |  | 
6 | GRN163: antisense oligonucleotide specific for telomerase, TAGGGTTAGACAA (listed as DNA, further chemistry not given here) | inhibited cell proliferation only at a VP16 concentration of 50 ng/ml | inhibited cell proliferation only at concentrations of 10 μg/ml and 20 μg/ml |  | did not inhibit cell proliferation at any VP16 concentration tested | did not significantly inhibit cell proliferation at any of the three concentration levels | inhibited cell proliferation better than the GFP control oligonucleotide | has been previously shown to inhibit tumor growth in animal models | 
7 | ERV-9 LTR U3 siRNA: siRNA duplex of the ERV9 LTR U3 region: CUCAAGGUUUGUAAACACACCAAUCAG and CUGAUUGGUGUGUUUACAAACCUUGAG (listed as RNA, chemistry not given here) |  |  |  |  |  |  |  | cell proliferation as percentage of non-treated control [8]: inhibited cell proliferation better than RRM2 siRNAs; cell proliferation as percentage of non-treated control [9]: inhibited cell proliferation better than RRM2 siRNAs
8 | U3S5: ERV-9 U3 sense oligonucleotide GGCTGGCCAAGGCCAGAGCCGGCTCC, target nt 2792-2817 (AF064190) (listed as DNA, chemistry not given here) [Oligo U3S5] |  |  | inhibited cell proliferation better than G3139, GRN163 and MDM2 oligonucleotides |  |  |  |  | 
9 | U3AS4: ERV-9 U3 antisense oligonucleotide GCGGCGCTCGTCGGCGAGGCACGG, target nt 3096-3119 (AF064190) (listed as DNA, chemistry not given here) [Oligo U3AS4] |  |  | inhibited cell proliferation better than G3139, GRN163 and MDM2 oligonucleotides |  |  |  |  | 
10 | U5S: ERV-9 U5 sense oligonucleotide GAACACATCCAAACATCAGAAC, target nt 819-840 (AF064191) (listed as DNA, chemistry not given here) [Oligo U5S] |  |  | inhibited cell proliferation better than the GFP oligonucleotide control |  |  |  |  | 
